ChEMBL document CHEMBL4610123, “Structure-Based Drug Discovery of N-((R)-3-(7-Methyl-1H-indazol-5-yl)-1-oxo-1-(((S)-1-oxo-3-(piperidin-4-yl)-1-(4-(pyridin-4-yl)piperazin-1-yl)propan-2-yl)amino)propan-2-yl)-2'-oxo-1',2'-dihydrospiro[piperidine-4,4'-pyrido[2,3-d][1,3]oxazine]-1-carboxamide (HTL22562): A Calcitonin Gene-Related …” (J Med Chem, 2020)
Converted amounts (≈) assume the structure as drawn.

Key:
[1] = Protein binding in dog plasma by high-throughput dialysis method; type: ADME, cell-free, Canis lupus familiaris; conditions: read-out: PPB (converted)
Cytochrome P450 2C9 = Cytochrome P450 2C9 (Homo sapiens, UniProt P11712); experiment: Inhibition of CYP2C9 (unknown origin); type: ADME
Chain of Cytochrome P450 2C9 (P11712 whole entry): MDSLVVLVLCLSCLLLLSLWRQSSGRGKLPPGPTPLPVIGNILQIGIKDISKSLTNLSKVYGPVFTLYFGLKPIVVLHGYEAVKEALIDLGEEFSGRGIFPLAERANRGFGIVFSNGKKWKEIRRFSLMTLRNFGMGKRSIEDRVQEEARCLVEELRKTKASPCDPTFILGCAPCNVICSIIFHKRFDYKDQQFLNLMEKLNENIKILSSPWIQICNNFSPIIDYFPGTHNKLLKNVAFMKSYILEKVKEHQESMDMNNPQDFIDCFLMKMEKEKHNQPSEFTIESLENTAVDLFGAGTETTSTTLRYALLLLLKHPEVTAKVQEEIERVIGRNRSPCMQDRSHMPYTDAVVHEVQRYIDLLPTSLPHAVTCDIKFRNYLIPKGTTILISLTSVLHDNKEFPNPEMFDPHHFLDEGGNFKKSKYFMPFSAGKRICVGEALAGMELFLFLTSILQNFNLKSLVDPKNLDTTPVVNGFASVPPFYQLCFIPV

Macaca fascicularis = species: Macaca fascicularis; experiment: Antagonist activity at cynomolgus monkey CGRP receptor
[2] = Efflux ratio of apparent permeability in MDCK cells; type: ADME, cell-based, Canis lupus familiaris; conditions: dog
[3] = Oral bioavailability in cynomolgus monkey at 0.5 mg/kg; type: ADME, organism-based, Macaca fascicularis; conditions: in vivo
[4] = Clearance in cynomolgus monkey at 0.5 mg/kg, iv; type: ADME, organism-based, Macaca fascicularis; conditions: in vivo
Homo sapiens = species: Homo sapiens; experiment: Selectivity ratio of antagonist activity at adrenomedullin-1 receptor (unknown origin) to antagonist activity at human CGRP receptor in human SK-N-MC cells; type: cell-based
[5] = molecular target: Calcitonin-gene-related peptide receptor; CALCRL/RAMP1 (Rattus norvegicus) (UniProt Q63118+Q9JJ74); experiment: Antagonist activity at rat CGRP receptor; type: protein-complex assay
[6] = Oral bioavailability in cynomolgus monkey at 0.013 mg/kg; type: ADME, organism-based, Macaca fascicularis; conditions: in vivo
[7] = Half life in rat at 1 mg/kg, sc; type: ADME, organism-based; conditions: in vivo
[8] = Half life in rat hepatocytes; type: ADME, cell-based, Hepatocyte
[9] = molecular target: T1, Muscarinic acetylcholine receptor M2 (Homo sapiens) (UniProt P08172); experiment: Antagonist activity at CHRM2 (unknown origin) at 10 uM relative to control
T1 sequence (whole entry): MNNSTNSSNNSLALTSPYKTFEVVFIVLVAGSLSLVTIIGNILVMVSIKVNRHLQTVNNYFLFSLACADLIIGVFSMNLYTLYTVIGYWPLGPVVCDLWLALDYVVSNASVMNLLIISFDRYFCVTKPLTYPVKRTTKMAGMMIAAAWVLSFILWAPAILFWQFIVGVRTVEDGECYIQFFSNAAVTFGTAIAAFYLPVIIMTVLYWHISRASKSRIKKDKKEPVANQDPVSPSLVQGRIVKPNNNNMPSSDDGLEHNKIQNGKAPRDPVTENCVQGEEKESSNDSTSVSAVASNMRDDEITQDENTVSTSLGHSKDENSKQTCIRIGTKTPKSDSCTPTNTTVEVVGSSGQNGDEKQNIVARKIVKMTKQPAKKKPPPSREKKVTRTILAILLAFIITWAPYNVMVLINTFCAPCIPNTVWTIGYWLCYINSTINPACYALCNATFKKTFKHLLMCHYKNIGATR

[10] = Tmax in rat at 1 mg/kg, sc; type: ADME, organism-based; conditions: in vivo
[11] = Genotoxicity in Salmonella typhimurium TA100 by mini AMES test; type: toxicity; conditions: salmonella enterica subsp. enterica serovar typhimurium
[12] = molecular target: T2, Mas-related G-protein coupled receptor member X2 (Homo sapiens, UniProt Q96LB1); experiment: Agonist activity at MRGPX2 (unknown origin)
T2 sequence (Q96LB1 whole entry): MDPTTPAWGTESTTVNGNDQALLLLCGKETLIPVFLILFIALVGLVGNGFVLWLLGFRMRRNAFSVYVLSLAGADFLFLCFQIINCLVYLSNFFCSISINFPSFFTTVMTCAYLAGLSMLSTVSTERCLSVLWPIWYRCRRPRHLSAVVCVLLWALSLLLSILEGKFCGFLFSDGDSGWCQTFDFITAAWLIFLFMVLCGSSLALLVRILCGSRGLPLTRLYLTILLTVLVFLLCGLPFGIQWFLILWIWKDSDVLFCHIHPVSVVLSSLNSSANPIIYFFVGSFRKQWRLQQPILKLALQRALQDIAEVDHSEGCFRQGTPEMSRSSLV

[13] = Protein binding in cynomolgus monkey plasma by high-throughput dialysis method; type: ADME, cell-free, Macaca fascicularis; conditions: read-out: PPB (converted)
[14] = Half life in cynomolgus monkey at 0.5 mg/kg, sc; type: ADME, organism-based, Macaca fascicularis; conditions: in vivo
[15] = Stability of the compound in pH 8 solution at 50 degC assessed as loss of purity after 1 week; type: physicochemical; conditions: read-out: Drug degradation
[16] = Genotoxicity in Salmonella typhimurium TA1535 by mini AMES test; type: toxicity; conditions: salmonella enterica subsp. enterica serovar typhimurium
[17] = Half life in dog at 0.5 mg/kg, iv; type: ADME, organism-based, Canis lupus familiaris; conditions: in vivo
[18] = Half life in dog hepatocytes; type: ADME, cell-based, Canis lupus familiaris, Hepatocyte
[19] = Solubility of the compound at pH 5.7 using amorphous form of sample; type: physicochemical; conditions: buffer
hERG (KCNH2) = hERG (KCNH2) (Homo sapiens, UniProt Q12809); experiment: Inhibition of human ERG at 300 uM relative to control
Chain of hERG (KCNH2) (Q12809 whole entry): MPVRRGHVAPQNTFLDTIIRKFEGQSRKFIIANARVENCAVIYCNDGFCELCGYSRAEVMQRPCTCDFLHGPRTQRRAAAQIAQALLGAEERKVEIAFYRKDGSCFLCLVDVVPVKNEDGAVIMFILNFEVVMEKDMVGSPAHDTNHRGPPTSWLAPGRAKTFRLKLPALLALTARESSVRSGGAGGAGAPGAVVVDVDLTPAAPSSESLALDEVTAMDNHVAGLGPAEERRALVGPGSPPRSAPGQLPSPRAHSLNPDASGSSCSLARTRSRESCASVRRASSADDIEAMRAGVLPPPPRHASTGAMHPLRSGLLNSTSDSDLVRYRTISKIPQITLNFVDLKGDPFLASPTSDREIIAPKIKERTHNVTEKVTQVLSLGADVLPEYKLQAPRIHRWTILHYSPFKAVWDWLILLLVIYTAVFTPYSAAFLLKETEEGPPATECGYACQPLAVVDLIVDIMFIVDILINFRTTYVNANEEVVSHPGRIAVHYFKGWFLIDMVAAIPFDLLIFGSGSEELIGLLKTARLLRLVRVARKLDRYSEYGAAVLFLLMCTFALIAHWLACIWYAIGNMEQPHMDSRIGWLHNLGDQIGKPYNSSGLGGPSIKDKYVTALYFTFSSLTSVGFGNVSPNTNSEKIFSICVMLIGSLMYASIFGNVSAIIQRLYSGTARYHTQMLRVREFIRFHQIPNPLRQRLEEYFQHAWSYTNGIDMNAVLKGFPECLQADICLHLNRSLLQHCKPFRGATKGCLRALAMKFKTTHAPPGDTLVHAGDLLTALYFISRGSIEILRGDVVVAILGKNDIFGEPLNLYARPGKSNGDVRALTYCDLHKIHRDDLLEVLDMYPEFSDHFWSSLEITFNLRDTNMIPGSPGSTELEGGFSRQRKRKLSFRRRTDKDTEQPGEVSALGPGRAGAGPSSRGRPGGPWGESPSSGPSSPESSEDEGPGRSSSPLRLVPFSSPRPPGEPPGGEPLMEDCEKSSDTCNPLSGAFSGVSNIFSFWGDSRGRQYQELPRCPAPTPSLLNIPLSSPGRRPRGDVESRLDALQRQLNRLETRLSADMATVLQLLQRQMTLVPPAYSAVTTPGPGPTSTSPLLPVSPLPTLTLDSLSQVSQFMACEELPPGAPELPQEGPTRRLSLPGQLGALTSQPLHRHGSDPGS

[20] = Oral bioavailability in rat at 1 mg/kg; type: ADME, organism-based; conditions: in vivo
[21] = Half life in cynomolgus monkey at 0.013 mg/kg, sc; type: ADME, organism-based, Macaca fascicularis; conditions: in vivo
PXR (NR1I2) = molecular target: T3, PXR (NR1I2) (Homo sapiens, UniProt O75469); experiment: Transactivation of PXR (unknown origin) assessed as induction of CYP450 at 3 uM relative to control; type: ADME; conditions: read-out: FC
T3 sequence (O75469 whole entry): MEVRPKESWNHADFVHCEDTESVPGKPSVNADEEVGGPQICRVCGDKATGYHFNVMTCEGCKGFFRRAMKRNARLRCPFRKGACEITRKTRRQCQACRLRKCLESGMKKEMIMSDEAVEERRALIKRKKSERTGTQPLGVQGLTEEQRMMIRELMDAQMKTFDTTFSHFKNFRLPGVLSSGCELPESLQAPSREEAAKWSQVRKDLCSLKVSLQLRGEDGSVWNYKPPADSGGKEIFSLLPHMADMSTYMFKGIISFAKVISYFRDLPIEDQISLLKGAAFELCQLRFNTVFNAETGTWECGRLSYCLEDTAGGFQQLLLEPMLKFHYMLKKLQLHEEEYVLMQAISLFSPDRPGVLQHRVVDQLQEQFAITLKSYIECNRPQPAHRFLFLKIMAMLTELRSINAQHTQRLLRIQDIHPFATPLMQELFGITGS

Cytochrome P450 2D6 = Cytochrome P450 2D6 (Homo sapiens, UniProt P10635); experiment: Inhibition of CYP2D6 (unknown origin); type: ADME
Chain of Cytochrome P450 2D6 (P10635 whole entry): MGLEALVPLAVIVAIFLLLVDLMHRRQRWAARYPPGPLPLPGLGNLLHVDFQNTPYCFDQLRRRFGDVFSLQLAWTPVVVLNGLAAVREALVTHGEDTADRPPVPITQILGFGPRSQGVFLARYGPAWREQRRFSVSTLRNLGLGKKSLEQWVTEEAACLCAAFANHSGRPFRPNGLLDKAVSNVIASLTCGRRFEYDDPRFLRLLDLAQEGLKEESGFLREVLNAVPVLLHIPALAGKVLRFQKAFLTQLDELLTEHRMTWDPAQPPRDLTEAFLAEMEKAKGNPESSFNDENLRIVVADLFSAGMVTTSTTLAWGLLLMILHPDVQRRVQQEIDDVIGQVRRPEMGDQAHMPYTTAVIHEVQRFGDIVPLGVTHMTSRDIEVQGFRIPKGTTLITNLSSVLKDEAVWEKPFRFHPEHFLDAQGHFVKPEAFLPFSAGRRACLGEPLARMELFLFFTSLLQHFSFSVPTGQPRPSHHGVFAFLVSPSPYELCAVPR

[22] = Genotoxicity in Salmonella typhimurium TA98 by mini AMES test; type: toxicity; conditions: salmonella enterica subsp. enterica serovar typhimurium
Cytochrome P450 3A4 = Cytochrome P450 3A4 (Homo sapiens, UniProt P08684); experiment: Inhibition of CYP3A4 (unknown origin); type: ADME
Chain of Cytochrome P450 3A4 (P08684 whole entry): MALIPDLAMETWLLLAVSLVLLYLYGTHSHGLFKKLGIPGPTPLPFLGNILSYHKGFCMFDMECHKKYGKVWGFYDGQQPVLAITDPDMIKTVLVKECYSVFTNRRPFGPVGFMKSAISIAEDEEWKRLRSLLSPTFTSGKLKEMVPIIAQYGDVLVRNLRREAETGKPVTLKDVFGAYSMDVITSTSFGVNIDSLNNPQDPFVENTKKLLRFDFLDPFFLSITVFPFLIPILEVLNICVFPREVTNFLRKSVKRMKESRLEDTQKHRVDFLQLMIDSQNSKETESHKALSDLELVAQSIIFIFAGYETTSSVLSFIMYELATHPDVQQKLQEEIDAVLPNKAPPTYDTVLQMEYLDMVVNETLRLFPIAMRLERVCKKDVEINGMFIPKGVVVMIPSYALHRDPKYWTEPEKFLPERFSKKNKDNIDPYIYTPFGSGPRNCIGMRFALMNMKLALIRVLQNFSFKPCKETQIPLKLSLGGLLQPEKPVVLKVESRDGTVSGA

[23] = Thermodynamic solubility of the compound at pH 7.4; type: physicochemical; conditions: buffer, read-out: Therm_solubility
[24] = molecular target: Calcitonin-gene-related peptide receptor, CALCRL/RAMP1 (Homo sapiens, UniProt O60894+Q16602); experiment: Displacement of [3H]telcagepant from recombinant human CLR/RAMP1 expressed in Sf21 insect cell membranes measured after 60 mins by microbeta scintillation counting method
Chain of Calcitonin-gene-related peptide receptor, CALCRL/RAMP1 (O60894 whole entry): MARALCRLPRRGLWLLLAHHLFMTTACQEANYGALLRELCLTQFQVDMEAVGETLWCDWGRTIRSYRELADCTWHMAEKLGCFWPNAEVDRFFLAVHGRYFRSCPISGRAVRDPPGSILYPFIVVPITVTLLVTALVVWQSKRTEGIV
Chain of Calcitonin-gene-related peptide receptor, CALCRL/RAMP1 (Q16602 whole entry): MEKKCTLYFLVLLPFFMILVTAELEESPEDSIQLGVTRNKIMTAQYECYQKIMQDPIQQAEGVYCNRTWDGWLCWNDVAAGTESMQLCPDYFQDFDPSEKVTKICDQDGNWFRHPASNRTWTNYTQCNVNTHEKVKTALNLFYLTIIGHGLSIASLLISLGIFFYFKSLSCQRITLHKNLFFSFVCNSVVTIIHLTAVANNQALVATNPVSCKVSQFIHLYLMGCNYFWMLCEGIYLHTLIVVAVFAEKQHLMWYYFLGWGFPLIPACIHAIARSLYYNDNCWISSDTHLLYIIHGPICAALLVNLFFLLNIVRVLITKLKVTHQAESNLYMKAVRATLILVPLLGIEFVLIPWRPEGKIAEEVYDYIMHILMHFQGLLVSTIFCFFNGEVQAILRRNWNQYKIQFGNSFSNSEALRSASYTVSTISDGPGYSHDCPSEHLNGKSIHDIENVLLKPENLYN

[25] = Protein binding in rat plasma by high-throughput dialysis method; type: ADME, cell-free; conditions: read-out: PPB (converted)
[26] = Half life in cynomolgus monkey at 0.5 mg/kg, iv; type: ADME, organism-based, Macaca fascicularis; conditions: in vivo
Canis lupus familiaris = species: Canis lupus familiaris; experiment: Antagonist activity at dog CGRP receptor
[27] = Volume of distribution at steady state in dog at 0.5 mg/kg, iv; type: ADME, organism-based, Canis lupus familiaris; conditions: in vivo, read-out: Vdss
[28] = Tmax in cynomolgus monkey at 0.013 mg/kg, sc; type: ADME, organism-based, Macaca fascicularis; conditions: in vivo
[29] = Binding affinity to cynomolgus monkey CGRP receptor; parameters: species or system Macaca fascicularis
[30] = Tmax in cynomolgus monkey at 0.5 mg/kg, sc; type: ADME, organism-based, Macaca fascicularis; conditions: in vivo

SMILES: Cc1cc(C[C@@H](NC(=O)N2CCC3(CC2)OC(=O)Nc2ncccc23)C(=O)N[C@@H](CC2CCNCC2)C(=O)N2CCN(c3ccncc3)CC2)cc2cn[nH]c12 [HTL-0022562]
- fraction unbound [1]: 0.77
- IC50 (Cytochrome P450 2C9): > 50100 nM
- pKb (Macaca fascicularis): 10.5
- efflux ratio [2]: > 2.7
- bioavailability [3]: 117%
- clearance [4]: 2 mL/min/kg
- Selectivity ratio (Homo sapiens): > 8000
- pKb [5]: < 7
- bioavailability [6]: 68%
- half-life [7]: 2.6 h
- half-life [8]: > 5 h
- inhibition [9]: 65%
- Tmax [10]: 0.7 h
- Activity [11]: Non-Toxic
- EC50 [12]: 900 nM
- fraction unbound [13]: 0.69
- half-life [14]: 3.6 h
- degraded at 168 h [15]: 4.5%
- Activity [16]: Non-Toxic
- half-life [17]: 1.2 h
- half-life [18]: > 5 h
- solubility [19]: 115 mg/mL (≈ 151 mM)
- inhibition at 300 µM (hERG (KCNH2)): 6%
- bioavailability [20]: 123%
- half-life [21]: 3.5 h
- fold induction at 3 µM (PXR (NR1I2)): 2.3
- IC50 (Cytochrome P450 2D6): > 50100 nM
- Activity [22]: Non-Toxic
- IC50 (Cytochrome P450 3A4): > 50100 nM
- solubility thermodynamic [23]: 2460 µM (≈ 1880 µg/mL)
- Ki [24]: 0.0316 nM
- fraction unbound [25]: 0.59
- half-life [26]: 5.3 h
- pKb (Canis lupus familiaris): 7.2
- Vd [27]: 0.3 L/kg
- Tmax [28]: 0.8 h
- pKi [29]: 11.3
- Tmax [30]: 0.8 h
